Experimental data taken from publication PMC5844225 (Journal of medicinal chemistry, 2016).

Legend:
[1] = system: SmTGR; settings: cited from earlier work
[2] = system: S. mansoni schistosomula; assay: Automated ex vivo larval S. mansoni HCS assay; format: cell-based, Schistosoma mansoni; settings: 48 h exposure

Structure (SMILES)	SmTGR inhibition mode [1]	schistosomula phenotype [2]
Cc1c(-c2cnccn2)ssc1=S [OLT, oltipraz]	noncompetitive inhibitor	
Cc1noc(/C=C/c2ccccn2)c1[N+](=O)[O-] [Compound 3, 2-[2-(3-methyl-4-nitro-5-isoxazolyl)vinyl]pyridine]		internal disruption of larvae
O=S(=O)(Cc1ccccc1)c1nc2ccccc2s1 [Compound 4, 2-(benzylsulfonyl)-1,3-benzothiazole]		internal disruption of larvae
